# Measurements as given in patent US20260306503A1, “(S)-2-HYDROXY-6-((4-(2-(2-HYDROXYETHYL)NICOTINOYL)MORPHOLIN-3-YL)METHOXY)BENZALDEHYD FOR USE IN THE TREATMENT OF SICKLE CELL DISEASE” (Global Blood Therapeutics, Inc., priority 2023, published 2026).
# System: participants with SCD
# Experiment: Preliminary blood analysis of SCD patients given oral Compound I, 300 mg QD for 14 days then 200 mg QD through Week 12 (Part A Sub Study 2);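 as to Bilirubin total: values in mg/dL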
# Assay type: in vivo, human
# Experimental: Part A of this study is a Phase 2 randomized, open-label, dose-finding study in approximately 60 adult participants with SCD. The primary objective of Part A of this study is to assess the effects of Compound I in adult participants with SCD as measured by change in hemoglobin.
# Participants are screened for eligibility in the study from Day −28 through Day −1. Eligible participants are randomized on Day 1 based on a 1:1 (100 mg: 150 mg) allocation and will receive their initial dose (loading dose) of Compound I. After completion of Day 1 assessments and subsequent loading doses, participants will continue with administration of their maintenance dose daily through Week 12.
# Some newly enrolled participants in Part A will receive a loading dose regimen of 300 mg of Compound I once daily over the first 14 days. Participants will then receive 200 mg once daily maintenance doses through Week 12.
smiles,measurement,setting,value
"O=Cc1c(O)cccc1OC[C@@H]1COCCN1C(=O)c1cccnc1CCO [Compound I, (S)-2-hydroxy-6-((4-(2-(2-hydroxyethyl)nicotinoyl)morpholin-3-yl)methoxy)benzaldehyde]",Bilirubin direct,"Patient A, Day 1, Day 0 (screening) 0.48",<0.01 mg/dL
same,Absolute neutrophil,"Patient A, Day 1, Day 0 (screening) 1.7",2.2 K/μL
same,Reticulocytes,"Patient A, Day 1, Day 0 (screening) 2.2",5.2%
same,Bilirubin total,"Patient A, Day 1, Day 0 (screening) 2.4",2.16 mg/dL
same,Hemoglobin (HGB),"Patient A, Day 1, Day 0 (screening) 7.0",8.8 g/dL
same,Hematocrit (HCT),"Patient A, Day 1, Day 0 (screening) 20.4",25.1%
same,Alanine Aminotransferase (ALT),"Patient A, Day 1, Day 0 (screening) 26.1",28.2 IU/L
same,Aspartate Aminotransferase (AST),"Patient A, Day 1, Day 0 (screening) 56.0",60.0 IU/L
same,Alkaline phosphatase,"Patient A, Day 1, Day 0 (screening) 143.5",152.7 IU/L
same,Platelet count,"Patient A, Day 1, Day 0 (screening) 148",219 K/μL
same,Lactate dehydrogenase (LDH),"Patient A, Day 1, Day 0 (screening) 358",339 IU/L
same,Bilirubin direct,"Patient A, Day 15, Day 0 (screening) 0.48",<0.01 mg/dL
same,Absolute neutrophil,"Patient A, Day 15, Day 0 (screening) 1.7",2.2 K/μL
same,Reticulocytes,"Patient A, Day 15, Day 0 (screening) 2.2",3.0%
same,Bilirubin total,"Patient A, Day 15, Day 0 (screening) 2.4",1.06 mg/dL
same,Hemoglobin (HGB),"Patient A, Day 15, Day 0 (screening) 7.0",10.6 g/dL
same,Hematocrit (HCT),"Patient A, Day 15, Day 0 (screening) 20.4",30.9%
same,Alanine Aminotransferase (ALT),"Patient A, Day 15, Day 0 (screening) 26.1",26.1 IU/L
same,Aspartate Aminotransferase (AST),"Patient A, Day 15, Day 0 (screening) 56.0",43.1 IU/L
same,Alkaline phosphatase,"Patient A, Day 15, Day 0 (screening) 143.5",156.7 IU/L
same,Platelet count,"Patient A, Day 15, Day 0 (screening) 148",239 K/μL
same,Lactate dehydrogenase (LDH),"Patient A, Day 15, Day 0 (screening) 358",243 IU/L
same,Absolute neutrophil,"Patient A, Day 29, Day 0 (screening) 1.7",0.5 K/μL
same,Reticulocytes,"Patient A, Day 29, Day 0 (screening) 2.2",2.0%
same,Hemoglobin (HGB),"Patient A, Day 29, Day 0 (screening) 7.0",12.2 g/dL
same,Hematocrit (HCT),"Patient A, Day 29, Day 0 (screening) 20.4",35.9%
same,Platelet count,"Patient A, Day 29, Day 0 (screening) 148",211 K/μL
same,Bilirubin direct,"Patient A, Day 43, Day 0 (screening) 0.48",0.28 mg/dL
same,Absolute neutrophil,"Patient A, Day 43, Day 0 (screening) 1.7",0.6 K/μL
same,Bilirubin indirect,"Patient A, Day 43, Day 0 (screening) 1.92",0.78 mg/dL
same,Reticulocytes,"Patient A, Day 43, Day 0 (screening) 2.2",1.5%
same,Bilirubin total,"Patient A, Day 43, Day 0 (screening) 2.4",1.06 mg/dL
same,Hemoglobin (HGB),"Patient A, Day 43, Day 0 (screening) 7.0",14.9 g/dL
same,Hematocrit (HCT),"Patient A, Day 43, Day 0 (screening) 20.4",43.3%
same,Alanine Aminotransferase (ALT),"Patient A, Day 43, Day 0 (screening) 26.1",28.9 IU/L
same,Aspartate Aminotransferase (AST),"Patient A, Day 43, Day 0 (screening) 56.0",44.1 IU/L
same,Alkaline phosphatase,"Patient A, Day 43, Day 0 (screening) 143.5",160.8 IU/L
same,Platelet count,"Patient A, Day 43, Day 0 (screening) 148",249 K/μL
same,Lactate dehydrogenase (LDH),"Patient A, Day 43, Day 0 (screening) 358",193 IU/L
same,Bilirubin direct,"Patient A, Day 57, Day 0 (screening) 0.48",0.38 mg/dL
same,Absolute neutrophil,"Patient A, Day 57, Day 0 (screening) 1.7",3.5 K/μL
same,Bilirubin indirect,"Patient A, Day 57, Day 0 (screening) 1.92",2.39 mg/dL
same,Reticulocytes,"Patient A, Day 57, Day 0 (screening) 2.2",0.1%
same,Bilirubin total,"Patient A, Day 57, Day 0 (screening) 2.4",2.77 mg/dL
same,Hemoglobin (HGB),"Patient A, Day 57, Day 0 (screening) 7.0",12.4 g/dL
same,Hematocrit (HCT),"Patient A, Day 57, Day 0 (screening) 20.4",36.3%
same,Alanine Aminotransferase (ALT),"Patient A, Day 57, Day 0 (screening) 26.1",66.6 IU/L
same,Aspartate Aminotransferase (AST),"Patient A, Day 57, Day 0 (screening) 56.0",82.9 IU/L
same,Alkaline phosphatase,"Patient A, Day 57, Day 0 (screening) 143.5",198.2 IU/L
same,Platelet count,"Patient A, Day 57, Day 0 (screening) 148",153 K/μL
same,Lactate dehydrogenase (LDH),"Patient A, Day 57, Day 0 (screening) 358",345 IU/L
same,Bilirubin direct,"Patient A, Day 85, Day 0 (screening) 0.48",0.08 mg/dL
same,Absolute neutrophil,"Patient A, Day 85, Day 0 (screening) 1.7",1.1 K/μL
same,Bilirubin indirect,"Patient A, Day 85, Day 0 (screening) 1.92",2.81 mg/dL
same,Reticulocytes,"Patient A, Day 85, Day 0 (screening) 2.2",5.2%
same,Bilirubin total,"Patient A, Day 85, Day 0 (screening) 2.4",2.89 mg/dL
same,Hemoglobin (HGB),"Patient A, Day 85, Day 0 (screening) 7.0",11.0 g/dL
same,Hematocrit (HCT),"Patient A, Day 85, Day 0 (screening) 20.4",31.0%
same,Alanine Aminotransferase (ALT),"Patient A, Day 85, Day 0 (screening) 26.1",28.2 IU/L
same,Aspartate Aminotransferase (AST),"Patient A, Day 85, Day 0 (screening) 56.0",54.0 IU/L
same,Alkaline phosphatase,"Patient A, Day 85, Day 0 (screening) 143.5",150.6 IU/L
same,Platelet count,"Patient A, Day 85, Day 0 (screening) 148",146 K/μL
same,Lactate dehydrogenase (LDH),"Patient A, Day 85, Day 0 (screening) 358",354 IU/L
same,Bilirubin direct,"Patient B, Day 1, Day 0 (screening) 0.18",0.18 mg/dL
same,Bilirubin indirect,"Patient B, Day 1, Day 0 (screening) 4.66",4.17 mg/dL
same,Bilirubin total,"Patient B, Day 1, Day 0 (screening) 4.84",4.35 mg/dL
same,Absolute neutrophil,"Patient B, Day 1, Day 0 (screening) 6.9",7.3 K/μL
same,Hemoglobin (HGB),"Patient B, Day 1, Day 0 (screening) 8.3",8.5 g/dL
same,Reticulocytes,"Patient B, Day 1, Day 0 (screening) 11.5",9.5%
same,Alanine Aminotransferase (ALT),"Patient B, Day 1, Day 0 (screening) 22.0",22.0 IU/L
same,Hematocrit (HCT),"Patient B, Day 1, Day 0 (screening) 23.5",24.7%
same,Aspartate Aminotransferase (AST),"Patient B, Day 1, Day 0 (screening) 41.1",39.1 IU/L
same,Alkaline phosphatase,"Patient B, Day 1, Day 0 (screening) 49.3",52.4 IU/L
same,Platelet count,"Patient B, Day 1, Day 0 (screening) 360",344 K/μL
same,Lactate dehydrogenase (LDH),"Patient B, Day 1, Day 0 (screening) 371",351 IU/L
same,Bilirubin direct,"Patient B, Day 8, Day 0 (screening) 0.18",0.08 mg/dL
same,Bilirubin indirect,"Patient B, Day 8, Day 0 (screening) 4.66",2.32 mg/dL
same,Bilirubin total,"Patient B, Day 8, Day 0 (screening) 4.84",2.4 mg/dL
same,Absolute neutrophil,"Patient B, Day 8, Day 0 (screening) 6.9",4.1 K/μL
same,Hemoglobin (HGB),"Patient B, Day 8, Day 0 (screening) 8.3",11.2 g/dL
same,Reticulocytes,"Patient B, Day 8, Day 0 (screening) 11.5",5.4%
same,Alanine Aminotransferase (ALT),"Patient B, Day 8, Day 0 (screening) 22.0",21.3 IU/L
same,Hematocrit (HCT),"Patient B, Day 8, Day 0 (screening) 23.5",33.1%
same,Aspartate Aminotransferase (AST),"Patient B, Day 8, Day 0 (screening) 41.1",42.1 IU/L
same,Alkaline phosphatase,"Patient B, Day 8, Day 0 (screening) 49.3",58.5 IU/L
same,Platelet count,"Patient B, Day 8, Day 0 (screening) 360",411 K/μL
same,Lactate dehydrogenase (LDH),"Patient B, Day 8, Day 0 (screening) 371",385 IU/L
same,Bilirubin direct,"Patient B, Day 29, Day 0 (screening) 0.18",0.18 mg/dL
same,Bilirubin indirect,"Patient B, Day 29, Day 0 (screening) 4.66",0.88 mg/dL
same,Bilirubin total,"Patient B, Day 29, Day 0 (screening) 4.84",1.06 mg/dL
same,Absolute neutrophil,"Patient B, Day 29, Day 0 (screening) 6.9",4.1 K/μL
same,Hemoglobin (HGB),"Patient B, Day 29, Day 0 (screening) 8.3",14.4 g/dL
same,Reticulocytes,"Patient B, Day 29, Day 0 (screening) 11.5",1.2%
same,Alanine Aminotransferase (ALT),"Patient B, Day 29, Day 0 (screening) 22.0",17.2 IU/L
same,Hematocrit (HCT),"Patient B, Day 29, Day 0 (screening) 23.5",42.8%
same,Aspartate Aminotransferase (AST),"Patient B, Day 29, Day 0 (screening) 41.1",29.1 IU/L
same,Alkaline phosphatase,"Patient B, Day 29, Day 0 (screening) 49.3",67.6 IU/L
same,Platelet count,"Patient B, Day 29, Day 0 (screening) 360",333 K/μL
same,Lactate dehydrogenase (LDH),"Patient B, Day 29, Day 0 (screening) 371",195 IU/L
same,Bilirubin direct,"Patient B, Day 43, Day 0 (screening) 0.18",0.18 mg/dL
same,Bilirubin indirect,"Patient B, Day 43, Day 0 (screening) 4.66",0.51 mg/dL
same,Bilirubin total,"Patient B, Day 43, Day 0 (screening) 4.84",0.69 mg/dL
same,Absolute neutrophil,"Patient B, Day 43, Day 0 (screening) 6.9",3.7 K/μL
same,Hemoglobin (HGB),"Patient B, Day 43, Day 0 (screening) 8.3",15.2 g/dL
same,Reticulocytes,"Patient B, Day 43, Day 0 (screening) 11.5",0.8%
same,Alanine Aminotransferase (ALT),"Patient B, Day 43, Day 0 (screening) 22.0",16.5 IU/L
